In patent US20240294548A1, “TRICYCLIC SULTAMS AND SULFAMIDES AS ANTITUMOR AGENTS” (PELOTON THERAPEUTICS INC., priority 2021, published 2024):
pEC50, pIC50: −log10 of the molar value. Where two headings read alike, the source gives them in different places.

Legend:
[1] = tested on: HCT116 human colorectal carcinoma cells; assay: CellTiter-Glo assay (cell viability); format: cell-based; details: HCT-116, 72 h, read-out: CTG IC50
Description: HCT116 human colorectal carcinoma cells were used in these experiments. HCT116 cells were obtained from ATCC. CellTiter-Glo® Luminescent Cell Viability Assay Reagent was obtained from Promega.
About 3,000 cells were seeded into 96-well plate with 100 μL of media (DMEM supplemented with 10% FBS, 100 units penicillin, and […] streptomycin per mL) the day before the experiment. For compound treatment, the master plate was prepared as follows: 100× compound stocks were prepared in a 96-well plate by 1 to 3 serial dilutions of 0.5 mM DMSO stocks. Each master plate contained serial dilution of 8 compounds, including the control compound E7820. […] of 100× compound stock was added to each well of the assay plate to give final concentrations of […]. Each concentration was tested in triplicate. After 3 days, cell viability was determined using CellTiter-Glo Luminescent Cell Viability Assay Reagent following the manufacturer's recommended protocol. Briefly, […] of CellTiter-Glo reagent was added to each well of the assay plate and the contents were mixed for 3 minutes at 600 rpm on a shaker (Thermomixer R). The plate was immediately placed in a plate reader (Synergy 2) and the luminescence signal (0.5 second per well integration time) was determined. IC50 values were calculated using Dotmatics software.

[2] = biological target: T1, DCAF15 (DDA1-DDB1ΔB-DCAF15Δpro) (Homo sapiens, UniProt Q66K64, DEL276-383); assay: DCAF15 displacement assay (displacement FRET, probe PT7795); format: binding; details: displacement of PT7795 (300 nM), compound 0.01 to 100 μM, 18 hours incubation; read-out: DCAF15 displacement IC50
T1 construct: made in house; host or cells: Sf9 (Bac-to-Bac baculovirus)
Description: (§1) Proteins used for the assays were as follows: Human DDA1 (UniProt:Q9BW61), DDB1 (UniPro: Q16531), and DCAF15 (UniProt: Q66K64) coding sequences were cloned into pFastBac1 vectors and were co-expressed in Sf9 cells using Bac-to-Bac baculovirus expression system (Thermo Fisher Scientific). The expression construct for DCAF15 includes a N-terminal His6-tag to facilitate the purification.
DCAF15 Displacement Assay (Displacement FRET KD)
Synthesis of the probe PT7795 is described in the article.
Binding of PT7795 to DDA1-DDB1AB-DCAF15Δpro was measured by the FRET signal between europium-labeled anti-His antibody (AD0205, Perkin Elmer) that is associated with His-tagged DCAF15 and ALX647 moiety in PT7795. […] After equilibrating for 2-3 hours at 4° C., the plate was removed from the incubator, briefly spun, then read on a Spark 10 (Tecan) at the excitation/emission wavelength of 340 nm/615 nm and 340 nm/665 nm.
Binding of compounds in this disclosure to DCAF15 was measured in a competition by the displacement of PT7795. The concentration of PT7795 was kept at 300 nM while the concentration of a compound was varied from 0.01 to 100 μM. The incubation time was increased to 18 hours for enhanced signal to noise level.
F=Fmin+(Fmax−Fmin)/(1+10^(logIC50−log[Compound])^n) (Equation 2)
The Kds can then be calculated from IC50s using Equation 3 (Cheng-Prusoff equation).

[3] = biological target: T2, DCAF15 RBM39 ternary complex (Homo sapiens, UniProt Q14498+Q66K64, DEL276-383); assay: DCAF15 RBM39 complex formation assay (FRET); format: biochemical; details: FRET ratio, 20 nM DDB1DB/DCAF15, 50 nM RBM39 R1R2, overnight at 4° C.; read-out: DCAF15 RBM39 ternary complex EC50
T2 construct: Amino acids 150 to 331 of RBM39 were cloned into pGEX4T3; GST (from the pGEX4T3 vector, own knowledge) followed by a TEV cleavage site (N); made in house; host or cells: Sf9 baculovirus (DDB1ΔB/DCAF15); E. coli (RBM39 R1R2)
T2 sequence (Q66K64 with tags, fused parts or gaps DEL276-383): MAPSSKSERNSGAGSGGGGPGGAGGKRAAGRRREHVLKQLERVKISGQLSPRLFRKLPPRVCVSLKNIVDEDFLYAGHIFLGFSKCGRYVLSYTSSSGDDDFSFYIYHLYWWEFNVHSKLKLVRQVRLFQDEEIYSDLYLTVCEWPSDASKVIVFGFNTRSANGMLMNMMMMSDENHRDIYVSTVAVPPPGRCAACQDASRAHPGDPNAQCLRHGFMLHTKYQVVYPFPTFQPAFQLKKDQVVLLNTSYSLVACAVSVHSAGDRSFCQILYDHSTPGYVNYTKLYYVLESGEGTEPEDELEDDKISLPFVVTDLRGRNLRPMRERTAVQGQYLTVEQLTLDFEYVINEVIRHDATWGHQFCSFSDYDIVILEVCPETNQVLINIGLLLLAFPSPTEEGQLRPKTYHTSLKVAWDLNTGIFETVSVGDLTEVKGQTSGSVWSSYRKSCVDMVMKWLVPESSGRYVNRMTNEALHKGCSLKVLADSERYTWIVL
T2 sequence (Q14498 150-331, stated change not applied): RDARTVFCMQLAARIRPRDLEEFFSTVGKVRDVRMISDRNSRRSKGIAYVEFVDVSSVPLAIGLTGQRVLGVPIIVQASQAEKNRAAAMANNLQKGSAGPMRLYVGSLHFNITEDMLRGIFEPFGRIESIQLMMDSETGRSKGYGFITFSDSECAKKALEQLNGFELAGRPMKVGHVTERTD
Description: as §1
DCAF15 RBM39 Complex Formation Assay
LANCE Eu-W1024 Anti-6×His and SureLight Allophycocyanin-anti-FLAG antibodies were purchased from Perkin Elmer. Human DDB1DB and His-tagged DCAF15 were co-expressed in baculovirus/sf9 system. […] The His-tagged DCAF15 contains six histidine residues directly preceding the DCAF15 sequence without any linker. An RBM39 fragment containing RRM1 and RRM2 was expressed in E. coli.
A compound of the present disclosure in DMSO (2 μL) was transferred to a 384-well assay plate. Compound was added in 14 points, 3-fold serial dilution (1 μM to 0.6 pico molar) in DMSO. […] FRET assay buffer (25 mM HEPES, pH 7.5, 100 mM NaCl, […], 0.5 mM TCEP, 0.005% Tween-20, 0.2 nM Eu-W1024 Anti-6×His, 50 nM SureLight Allophycocyanin-anti-FLAG, 20 nM DDB1DB/DCAF15, 50 nM RBM39 R1R2) was added and the resulting solution was incubated overnight at 4° C. […] Low signal controls containing no compound and high signal controls containing 10 mM indisulam were measured for each plate.
EC50 values were calculated using Dotmatics template equation for 4-parameter fit.
Results are expressed as % formation using the following equation: […]

[4] = HCT116 cells, 3 days, CellTiter-Glo luminescence

pIC50 [1, 4] | pIC50 [2] | pEC50 [3] | SMILES | pIC50 [1]
6.81 | 5.97 | 9.15 | O=S1(=O)Nc2c(cc(Cl)c3c(Cl)c[nH]c23)CN1Cc1ccncc1 [Compound 20, 6,7-dichloro-3-(pyridin-4-ylmethyl)-1,3,4,9-tetrahydro-[1,2,6] thiadiazino[4,3-g] indole 2,2-dioxide] | –
6.38 | 6.25 | 8.82 | COc1ccc(CN2Cc3cc(Cl)c4c(Cl)c[nH]c4c3NS2(=O)=O)cn1 [Compound 21, 6,7-dichloro-3-((6-methoxypyridin-3-yl)methyl)-1,3,4,9-tetrahydro-[1,2,6]thiadiazino [4,3-g]indole 2,2-dioxide] | –
6.23 | 5.02 | 8.55 | CC(c1ccccc1)N1Cc2cc(Cl)c3c(Cl)c[nH]c3c2NS1(=O)=O (stereo not drawn) [Compound 23, 6,7-dichloro-3-(1-phenylethyl)-1,3,4,9-tetrahydro-[1,2,6] thiadiazino[4,3-g] indole 2,2-dioxide] | –
6.10 | 5.08 | 8.41 | O=S1(=O)Nc2c(cc(Cl)c3c(Cl)c[nH]c23)CN1CCO [Compound 24, 6,7-dichloro-3-(2-hydroxyethyl)-1,3,4,9-tetrahydro-[1,2,6] thiadiazino[4,3-g]indole 2,2-dioxide] | –
6.00 | 4.28 | 8.47 | O=S1(=O)Nc2c(cc(Cl)c3c(Cl)c[nH]c23)CN1CCCC(F)(F)C(F)(F)F [Compound 25, 6,7-dichloro-3-(4,4,5,5,5-pentafluoropentyl)-1,3,4,9-tetrahydro-[1,2,6] thiadiazino[4,3-g]indole 2,2-dioxide] | –
6.89 | 6.30 | 8.92 | O=S1(=O)Nc2c(cc(Cl)c3c(Cl)c[nH]c23)CN1Cc1cccnc1 [Compound 26, 6,7-dichloro-3-(pyridin-3-ylmethyl)-1,3,4,9-tetrahydro-[1,2,6] thiadiazino[4,3-g] indole 2,2-dioxide] | –
6.85 | 6.19 | 9.10 | O=S1(=O)Nc2c(cc(Cl)c3c(Cl)c[nH]c23)CN1Cc1cccnc1Cl [Compound 27, 6,7-dichloro-3-((2-chloropyridin-3-yl)methyl)-1,3,4,9-tetrahydro-[1,2,6]thiadiazino [4,3-g]indole 2,2-dioxide] | –
6.30 | 4.55 | 8.85 | CNCCN1Cc2cc(Cl)c3c(Cl)c[nH]c3c2NS1(=O)=O [Compound 28, 6,7-dichloro-3-(2-(methylamino)ethyl)-1,3,4,9-tetrahydro-[1,2,6] thiadiazino[4,3-g]indole 2,2-dioxide] | –
5.35 | ≤ 4.00 | 6.58 | O=S1(=O)NCc2nc(Cl)c3c(Cl)c[nH]c3c2N1 [Compound 31, 6,7-dichloro-1,3,4,9-tetrahydropyrrolo[2′,3′:4,5]pyrido[3,2-c][1,2,6]thiadiazine 2,2-dioxide] | –
6.57 | 5.39 | 8.72 | O=S1(=O)Nc2c(cc(Cl)c3c(Cl)c[nH]c23)CN1CCCC(F)(F)F [Compound 32, 6,7-dichloro-3-(4,4,4-trifluorobutyl)-1,3,4,9-tetrahydro-[1,2,6] thiadiazino[4,3-g]indole 2,2-dioxide] | –
6.79 | 6.28 | 8.64 | O=S1(=O)Nc2c(cc(Cl)c3c(Cl)c[nH]c23)CN1Cc1cncnc1 [Compound 33, 6,7-dichloro-3-(pyrimidin-5-ylmethyl)-1,3,4,9-tetrahydro-[1,2,6]thiadiazino[4,3-g] indole 2,2-dioxide] | –
6.93 | 6.68 | 8.40 | O=S1(=O)Nc2c(cc(Cl)c3c(Cl)c[nH]c23)CN1Cc1ccncc1Cl [Compound 35, 6,7-dichloro-3-((3-chloropyridin-4-yl)methyl)-1,3,4,9-tetrahydro-[1,2,6]thiadiazino [4,3-g]indole 2,2-dioxide] | –
6.63 | 6.02 | 8.68 | Cc1nnc(CN2Cc3cc(Cl)c4c(Cl)c[nH]c4c3NS2(=O)=O)o1 [Compound 36, 6,7-dichloro-3-((5-methyl-1,3,4-oxadiazol-2-yl)methyl)-1,3,4,9-tetrahydro-[1,2,6] thiadiazino[4,3-g]indole 2,2-dioxide] | –
6.25 | 5.70 | 8.60 | Cn1cnc(CN2Cc3cc(Cl)c4c(Cl)c[nH]c4c3NS2(=O)=O)n1 [Compound 37, 6,7-dichloro-3-((1-methyl-1H-1,2,4-triazol-3-yl)methyl)-1,3,4,9-tetrahydro-[1,2,6] thiadiazino[4,3-g]indole 2,2-dioxide] | –
6.58 | 6.34 | 8.89 | Cn1ncnc1CN1Cc2cc(Cl)c3c(Cl)c[nH]c3c2NS1(=O)=O [Compound 38, 6,7-dichloro-3-((1-methyl-1H-1,2,4-triazol-5-yl)methyl)-1,3,4,9-tetrahydro-[1,2,6] thiadiazino[4,3-g]indole 2,2-dioxide] | –
5.30 | 6.55 | 8.92 | O=S1(=O)Nc2c(cc(Cl)c3c(Cl)c[nH]c23)CN1CC1CCNCC1 [Compound 39, 6,7-dichloro-3-(piperidin-4-ylmethyl)-1,3,4,9-tetrahydro-[1,2,6]thiadiazino[4,3-g]indole 2,2-dioxide] | –
6.27 | 5.81 | 8.80 | CC(=O)NCCN1Cc2cc(Cl)c3c(Cl)c[nH]c3c2NS1(=O)=O [Compound 40, N-(2-(6,7-dichloro-2,2-dioxido-4,9-dihydro-[1,2,6]thiadiazino[4,3-g]indol-3(1H)-yl)ethyl) acetamide] | –
6.74 | 4.76 | 7.97 | CN(C)CCN1Cc2cc(Cl)c3c(Cl)c[nH]c3c2NS1(=O)=O [Compound 41, 6,7-dichloro-3-(2-(dimethylamino)ethyl)-1,3,4,9-tetrahydro-[1,2,6] thiadiazino[4,3-g]indole 2,2-dioxide] | –
6.53 | 6.23 | 9.15 | O=S1(=O)Nc2c(cc(Cl)c3c(Cl)c[nH]c23)CN1Cc1cccnn1 [Compound 42, 6,7-dichloro-3-(pyridazin-3-ylmethyl)-1,3,4,9-tetrahydro-[1,2,6]thiadiazino[4,3-g]indole 2,2-dioxide] | –

SMILES | pIC50 [1, 4] | pIC50 [2] | pEC50 [3] | pIC50 [1]
O=S1(=O)Nc2c(cc(Cl)c3c(Cl)c[nH]c23)CN1CC1COC1 [Compound 34, 6,7-dichloro-3-(oxetan-3-ylmethyl)-1,3,4,9-tetrahydro-[1,2,6]thiadiazino[4,3-g]indole 2,2-dioxide] | – | 6.16 | 8.74 | 6.90
